Results as given in patent publication US20210338681A1, “COMBINATION THERAPIES” (SECURA BIO, INC., priority 2018, published 2021).
“Also recorded” adds a separate entry of the source.

Tests used:
human macrophages [1] = assay: Phagocytosis of CTV-labelled DLD-1 and Raji cells by human monocyte-derived macrophages, flow cytometry-based assay (Example 1); format: cell-based; conditions: FIG. 1
Method: PBMC were isolated using a density gradient from healthy donor blood samples. CD14+ monocytes were then separated using magnetic selection and differentiated into MO macrophages for 6 days in the presence of M-CSF and 3000 nM of duvelisib or vehicle (DMSO). Two cell lines positive for surface expression of CD47, DLD-1 (ATCC® CCL-221™) and Raji cells (ATCC® CCL-86™), were labelled with cell trace violet (CTV). These were then offered to the macrophage cultures in the presence of duvelisib or vehicle control for 4 hours to allow phagocytosis to occur. For the part of the assay where a CD47 blocking antibody and an opsonizing antibody were used, CD47 blocking antibody at 1 μg/ml (clone B6H12) and rituximab (for Raji cells) or cetuximab (for DLD-1 cells) at 1 μg/ml were added during the 4 hours co-culture. The effect of duvelisib on the capacity of macrophages to phagocytose target cells was determined in a flow cytometry-based assay.

human macrophages [2] = assay: Phagocytosis of CTV-labelled Raji cells by human monocyte-derived macrophages with anti-CD47 clone 5F9, flow cytometry-based assay (Example 2); format: cell-based; conditions: 3000 nM duvelisib during last 3 days of differentiation; CD47 blocking antibody clone 5F9 300 ng/ml, 2 hours; compared to duvelisib or anti-CD47 alone; FIG. 2
Method: PBMC were isolated using a density gradient from healthy donor blood samples. CD14+ monocytes were then separated using magnetic selection and differentiated into MO macrophages for 6 days in the presence of M-CSF. Duvelisib (3000 nM) or vehicle (DMSO) were added during the last 3 days of differentiation. Raji cells (ATCC® CCL-86™), which are positive for surface expression of CD47, were labelled with cell trace violet (CTV). These cells were then offered to the macrophage cultures in the presence of CD47 blocking antibody at 300 ng/ml (clone 5F9) for 2 hours to allow phagocytosis to occur. The effect of duvelisib on the capacity of macrophages to phagocytose target cells was determined in a flow cytometry-based assay.

C[C@H](Nc1ncnc2[nH]cnc12)c1cc2cccc(Cl)c2c(=O)n1-c1ccccc1 [duvelisib, (S)-3-(1-((9H-purin-6-yl)amino)ethyl)-8-chloro-2-phenylisoquinolin-1(2H)-one]
phagocytosis by human macrophages, duvelisib as a single agent (human macrophages [1]; 3000 nM duvelisib vs vehicle (DMSO) during 6 days differentiation with M-CSF and 4 hours co-culture, target cells DLD-1 and Raji, two representative donors per condition): increases phagocytosis; also recorded: increasing phagocytosis | phagocytosis by human macrophages, duvelisib in combination with anti-CD47 (clone B6H12) and an opsonizing antibody (human macrophages [1]; 3000 nM duvelisib, CD47 blocking antibody clone B6H12 1 μg/ml plus rituximab (Raji cells) or cetuximab (DLD-1 cells) 1 μg/ml during 4 hours co-culture): increases phagocytosis; also recorded: increasing phagocytosis | phagocytosis of Raji Burkitt's lymphoma cells by human macrophages, duvelisib in combination with anti-CD47 (clone 5F9) (human macrophages [2]): enhances phagocytosis; also recorded: increasing phagocytosis
